Consider one compound from patent US11311518B1, “Parenteral dosage form of β3 adrenoreceptor agonists” (Jubilant Pharma Holdings Inc., priority 2021, dated 2022).

SMILES strings stand for the structures. In brackets after ≈: the same amount, converted by molar mass.

For data set [1] the following is noted: background statement; cited from earlier work.
Data set [2] can be described thus: Solubility of the API in various solvent systems (saturation solubility studies). Type of data set: physicochemical. An excerpt:
In developing the parenteral formulation of mirabegron, the present inventors conducted extensive research and experiments. The solubility of API was studied in various solvent systems. For formulating immediate release injectable formulations, the solubility of the drug plays an important role as the final parenteral formulation has to be essentially a clear solution. […] Further, the inventors of the present invention were able to achieve maximum API solubility based on series of saturation solubility studies performed. […] The assessment of the successful development and stability of the solutions has been made on basis of the appearance of the solutions, the pH-value, osmolality, impurities content, and stability. The prepared formulations were found acceptable on these parameters.

The subject of data set [3] is biomarkers such as uncoupling protein 1 (UCP1), PGC-1α in iWAT (Inguinal white adipose tissue). Description: Biomarker expression in iWAT after localized microinjections of the injection formulations. It counts as in vivo, C57BL/6 mice. The note with it: dose up to 1 mg per animal; single and multiple localized microinjections in iWAT; indicates marked thermogenesis. The method, then: In certain non-limiting embodiments, the injection formulations were evaluated to determine the effect of mirabegron in animals (such as C57BL/6 mice etc.). The purpose of this study was to determine the effect of mirabegron on modulation in biomarkers such as uncoupling protein 1 (UCP1), Peroxisome proliferator-activated receptor-gamma coactivator-1alpha (PGC-1α) and others in this category to check pharmacokinetics after single and multiple localized microinjections in iWAT (Inguinal white adipose tissue). […]

For `Nc1nc(CC(=O)Nc2ccc(CCNC[C@H](O)c3ccccc3)cc2)cs1` [Mirabegron, (R)-2-(2-aminothiazol-4-yl)-4′-{2-[(2-hydroxy-2 phenylethyl)amino]ethyl}acetanilide], the Solubility in water entry in data set [1] is reported as “practically insoluble”. Besides, the “Solubility of API in Acetate buffer” value in data set [2] (Acetate buffer having pH 4.5, saturation solubility studies) is “maximum solubility”. Further, the “Drug solubility with co-solvent” value in data set [2] (co-solvent (such as propylene glycol) with or without heating) is reported as “failed to achieve desired drug solubility”. The “Solubility of API when pH is adjusted to the acidic side” value in data set [2] (pH close to 3.0) is on record as “soluble”. Moreover, the solubility is at most 100 mg/mL in data set [2] (solution with pH adjusted to the acidic side, pH 3, aqueous buffer, after pH adjusted to the acidic side) and about 0.1 mg/mL (≈ 252 µM) in data set [2] (water, starting value, before pH adjustment). Besides, the “Solubility of API in water” value in data set [2] (water) was “practically insoluble”. Moreover, the “Expression of biomarkers in iWAT” value in data set [3] was “statistically significant increase”.
